These results are taken from patent US9517988B2 (Sichuan Haisco Pharmaceutical Co., Ltd., priority 2013, dated 2016).

Data set [1] is described as follows: Righting reflex experiment on mice. The settings on record: both, ICR, mouse, in vivo; for LD50: iv; for MTD: intravenous. How it is done:
(§1) LD5 (5% lethal dose): dose required to cause 5% of mice to die in a test.
(§2) If a normal animal was able to immediately turn its body to normal upright position after being pushed over or made lying on its back, such a reflex was determined as the righting reflex. Otherwise, loss of the righting reflex and the time of loss were recorded, and a reflex recovery time was recorded when the animal restored the righting reflex. The period from finishing of drug administration until loss of the righting reflex was recorded as the anesthesia induction time, and the period from loss of the righting reflex until recovery of the righting reflex was recorded as the anesthesia maintenance time.
(§3) TI (therapeutic index, i.e. LD50/ED50), SI (safety index, i.e. LD5/ED95).
(§4) MTD (maximum tolerated dose): the maximum dose able to cause 100% to loss the righting index without death.
(§5) Indicators such as median effective dose (ED50), median lethal dose (LD50), therapeutic index (TI, i.e. LD50/ED50), safety index (SI, i.e. LD5/ED95), anesthesia induction time, anesthesia maintenance time, and maximum tolerated dose (MTD) were used to evaluate the effect and safety of anesthesia. […] After adapting to the laboratory environment, laboratory animals were fasted for 12 hours. On the next day, administration was carried out at 10 mg/kg body weight. Upon intravenous injection, the time of loss of the righting reflex was recorded. The period from finishing of drug administration until loss of the righting reflex was recorded as the anesthesia induction time, and the period from loss of the righting reflex until recovery of the righting reflex was recorded as the anesthesia maintenance time. The anesthesia induction time and the anesthesia maintenance time were used to indicate how strong an anesthetic effect was. Meanwhile, the dose required to cause a 7-min anesthesia (HD7) was measured and used to evaluate relative efficacy.

The subject of the next data set is ICR mice. Kind of data set: Righting reflex experiment on mice. The settings on record: for ED50: Mus musculus, iv; for Anesthesia induction time / Anesthesia maintenance time / HD7 / MTD: mice; for Anesthesia induction time / Anesthesia maintenance time: intravenous injection; for Anesthesia induction time: end of administration until loss of righting reflex; for Anesthesia maintenance time: loss until recovery of righting reflex; for HD7: dose required to cause a 7-min anesthesia; for MTD: maximum dose causing 100% loss of righting reflex without death; for SI: safety index, LD5/ED95, mice; for TI: therapeutic index, LD50/ED50, mice. How it is done:
as §1, §2, §3, §4, §5

Data set [2] is described as follows: Pharmacokinetic experiment on rats. It is filed as in vivo, SD rats. The settings on record: male, Sprague-Dawley, rat, plasma; Intravenous Injection into Rats (1 mg/kg). How it is done: 3 male SD rats, each weighing 180 to 240 g, were fasted overnight with water access. A 1 mL/kg solution of the compound was formulated with 10% DMA, 20% solutol HS-15 (30%, w/v) and 70% physiological saline. Blood was sampled before administration and 2 min, 4 min, 8 min, 12 min, 15 min, 30 min, 1 h, 1.5 h and 2 h after administration. Blood samples were centrifuged at 5500 rpm for 10 min, and plasma was collected and stored at −40° C. 10 μl rat plasma from each time point was added to a 200 μl acetonitrile solution containing an internal standard and mixed, followed by 1-min vortexing and 18-min centrifugation at 3700 rpm. Then 70 μl supernatant was mixed with 70 μl water, and 10 μl of the mixture was analyzed by LC-MS/MS. Major pharmacokinetic parameters were subjected to a non-compartment analysis with the software WinNonlin 6.3.

Take `CC(c1cccc(C(C)C2CC2)c1O)C1CC1` (centres unmarked) [Compound 13, 2,6-bis(1-cyclopropylethyl)phenol]: the LD50 in data set [1] came to 20 mg/kg. In addition, in the data set on ICR mice, the ED50 was determined as 3.6 mg/kg, the Anesthesia induction time is under 15.0 s, the Anesthesia maintenance time is on record as 554.4 s and the HD7 came to 7.0 mg/kg. Further, in the data set with ICR mice, the MTD is on record as 10.0 mg/kg, the SI came out at 3.0 and the TI is given as 5.5. In data set [2], this compound gave an AUC(0-t) of 187 ng·h/mL, a clearance of 87.5 mL/min/kg and a half-life of 12 min.
In data set [1], `CC(C)c1cccc([C@@H](C)C2CCC2)c1O` [Compound 15, 2-[(1S)-1-cyclobutylethyl]-6-isopropyl-phenol] returned an LD50 of 107 mg/kg. In the data set on ICR mice, this compound registered an ED50 of 46.1 mg/kg, an Anesthesia induction time of under 15.0 s, an Anesthesia maintenance time of 485.8 s and an MTD of 70.0 mg/kg. In addition, in the data set on ICR mice, the SI was determined as 1.1 and the TI worked out at 2.3.
With `CC(C)c1cccc(C(C2CC2)C2CC2)c1O` [Compound 11, 2-(dicyclopropylmethyl)-6-isopropyl-phenol], in data set [1], the MTD came out at 80 mg/kg and the median lethal dose (LD50) was 100 mg/kg. In the data set on ICR mice, the ED50 stood at 30.1 mg/kg, the Anesthesia induction time is under 15.0 s, the Anesthesia maintenance time is reported as 1494.7 s and the SI is 2.5. The TI in the data set on ICR mice is on record as 3.3.
For the compound `CC[C@H](C)c1cccc([C@H](C)C2CC2)c1O` [Compound 25, 2-[(1R)-1-cyclopropylethyl]-6-[(1S)-1-methylpropyl]phenol], in data set [1], the MTD was determined as 10 mg/kg and the LD50 came out at 14.3 mg/kg. In the data set on ICR mice, this compound yielded an ED50 of 2 mg/kg, an Anesthesia induction time of under 15.0 s, an Anesthesia maintenance time of 1048.0 s and an HD7 of 4.0 mg/kg. In addition, in the data set on ICR mice, the SI is reported as 4.6 and the TI was determined as 7.1. In data set [2], the AUC(0-t) turned out to be 78.1 ng·h/mL, the clearance was 208 mL/min/kg and the half-life was 24 min.
In data set [1], `CC(C)c1cccc([C@H](C)C2CCC2)c1O` [Compound 14, 2-[(1R)-1-cyclobutylethyl]-6-isopropyl-phenol] registered an LD50 of 38.2 mg/kg. In the data set with ICR mice, this compound gave an ED50 of 6.6 mg/kg, an Anesthesia induction time of under 15.0 s, an Anesthesia maintenance time of 2235.6 s and an MTD of 35.0 mg/kg. In the data set with ICR mice, this compound showed an SI of 3.7 and a TI of 5.8.
On to `CC[C@H](C)c1cccc([C@@H](C)C2CC2)c1O` [Compound 28, 2-[(1S)-1-cyclopropylethyl]-6-[(1S)-1-methylpropyl]phenol], for which, in data set [1], the MTD is 15 mg/kg and the 50% lethal dose (LD50) stood at 36.8 mg/kg. In the data set with ICR mice, this compound gave an ED50 of 5.3 mg/kg, an Anesthesia induction time of under 15.0 s, an Anesthesia maintenance time of 885.9 s and an HD7 of 8.0 mg/kg. Moreover, in the data set with ICR mice, the SI is 3.0 and the TI is 6.9. Further, in data set [2], the AUC(0-t) was found to be 143 ng·h/mL, the clearance stood at 115 mL/min/kg and the half-life was 18 min.
For the compound `CC[C@@H](C)c1cccc([C@@H](C)C2CC2)c1O` [Compound 29, 2-[(1S)-1-cyclopropylethyl]-6-[(1R)-1-methylpropyl]phenol], in data set [1], the MTD was found to be 40 mg/kg and the LD50 amounted to 65.4 mg/kg. For the same compound, in the data set on ICR mice, it took a dose of 10.1 mg/kg to reach the 50% effect level (ED50), the Anesthesia induction time was under 15.0 s, the Anesthesia maintenance time is reported as 1149.5 s and the SI is recorded as 3.7. Besides, the TI with ICR mice was 6.4. In data set [2], this compound gave an AUC(0-t) of 114 ng·h/mL, a clearance of 145 mL/min/kg and a half-life of 24 min.
In turn, `C[C@H](c1cccc([C@@H](C)C2CC2)c1O)C1CC1` [Compound 20, 2,6-bis[(1S)-1-cyclopropylethyl]phenol] displayed a median lethal dose (LD50) in data set [1] of 150 mg/kg. For the same compound, in the data set with ICR mice, it took a dose of 15.7 mg/kg to reach the 50% effect level (ED50), the Anesthesia induction time is listed as under 15.0 s, the Anesthesia maintenance time was 1207.7 s and the MTD came to 90.0 mg/kg. Moreover, in the data set on ICR mice, the SI was determined as 4.4 and the TI was determined as 9.6.
In data set [1], `C[C@H](c1cccc([C@H](C)C2CC2)c1O)C1CC1` [Compound 19, 2-[(1S)-1-cyclopropylethyl]-6-[(1R)-1-cyclopropylethyl]phenol] had an MTD of 5 mg/kg and an LD50 of 6.3 mg/kg. In the data set on ICR mice, this compound returned an ED50 of 1.5 mg/kg, an Anesthesia induction time of under 15.0 s, an Anesthesia maintenance time of 754.4 s and an SI of 3.8. In the data set with ICR mice, the TI is 4.1.
In data set [1], `CC[C@@H](C)c1cccc([C@H](C)C2CC2)c1O` [Compound 26, 2-[(1R)-1-cyclopropylethyl]-6-[(1R)-1-methylpropyl]phenol] gave an MTD of 4 mg/kg and an LD50 of 8.3 mg/kg. In the data set with ICR mice, this compound showed an ED50 of 1.3 mg/kg, an Anesthesia induction time of under 15.0 s, an Anesthesia maintenance time of 690.0 s and an HD7 of 2.5 mg/kg. In the data set with ICR mice, this compound showed an SI of 2.4 and a TI of 6.4. Further, in data set [2], the AUC(0-t) is 124 ng·h/mL, the clearance came out at 134 mL/min/kg and the half-life was 30 min.
In data set [1], `CC(c1cccc(C2CC2)c1O)C1CC1` (centres unmarked) [Compound 5, 2-cyclopropyl-6-(1-cyclopropylethyl)phenol] registered an MTD of 60 mg/kg and an LD50 of 80 mg/kg. In the data set on ICR mice, the 50% effect level (ED50) was put at a dose of 14.5 mg/kg, the Anesthesia induction time is under 15.0 s, the Anesthesia maintenance time is listed as 1669.5 s and the SI is listed as 4.0. For the same compound, the TI in the data set on ICR mice came to 5.5.
In data set [1], `CCC(C)c1cccc(C(C)C2CC2)c1O` (centres unmarked) [Compound 4, 2-sec-butyl-6-(1-cyclopropylethyl)phenol] had an MTD of 25 mg/kg and an LD50 of 38.1 mg/kg. In the data set on ICR mice, the ED50 came to 4.5 mg/kg, the Anesthesia induction time was under 15.0 s, the Anesthesia maintenance time was 901.7 s and the HD7 came out at 4.0 mg/kg. For the same compound, in the data set on ICR mice, the SI came out at 2.6 and the TI came to 8.4.
In data set [1], `CC(C)c1cccc(C(C)C2CC2)c1O` (centres unmarked) [Compound 3, 2-(1-cyclopropylethyl)-6-isopropylphenol] had an MTD of 10 mg/kg and an LD50 of 22.7 mg/kg. Besides, in the data set with ICR mice, the 50% effect level (ED50) was put at a dose of 3.7 mg/kg, the Anesthesia induction time is on record as under 15.0 s, the Anesthesia maintenance time is recorded as 660.4 s and the HD7 came to 6.0 mg/kg. In the data set on ICR mice, the SI worked out at 1.7 and the TI turned out to be 6.1.
Consider `CC(c1cccc(C2(C)CC2)c1O)C1CC1` (centres unmarked) [Compound 6, 2-(1-cyclopropylethyl)-6-(1-methylcyclopropyl)phenol], for which, in data set [1], the MTD was found to be 30 mg/kg and the LD50 came to 40 mg/kg. In the data set with ICR mice, the 50% effect level (ED50) was put at a dose of 10.5 mg/kg, the Anesthesia induction time is given as under 15.0 s, the Anesthesia maintenance time was 554.9 s and the SI was 2.7. Besides, in the data set with ICR mice, the TI amounted to 3.8.
Take `C[C@@H](c1cccc([C@H](C)C2CC2)c1O)C1CC1` [Compound 18, 2,6-bis[(1R)-1-cyclopropylethyl]phenol]: in data set [1], the MTD is 20 mg/kg and the LD50 came out at 43.6 mg/kg. In the data set on ICR mice, the ED50 was found to be 5.8 mg/kg, the Anesthesia induction time is on record as under 15.0 s, the Anesthesia maintenance time turned out to be 1031.6 s and the HD7 stood at 2.5 mg/kg. In the data set with ICR mice, this compound displayed an SI of 3.5 and a TI of 7.5.
On to `CC(C)c1cccc(C(C)C2CCC2)c1O` (centres unmarked) [Compound 7, 2-(1-cyclobutylethyl)-6-isopropylphenol], for which, in data set [1], the LD50 is 40 mg/kg. Also, in the data set on ICR mice, it took a dose of 7.1 mg/kg to reach the 50% effect level (ED50), the Anesthesia induction time is recorded as under 15.0 s, the Anesthesia maintenance time stood at 958.0 s and the MTD is 30.0 mg/kg. In the data set with ICR mice, this compound registered an SI of 2.7 and a TI of 5.7.

Broadly, the LD50 is the dose expected to kill half of the subjects tested. For orientation: ED50 means the dose that gives a 50% effect, or the effect in half of the subjects. Low values mean greater potency, high ones weaker potency. A word on the AUC(0-t): it is the area under the concentration-time curve up to a stated or last time point. Read a low AUC(0-t) as low exposure. A word on the clearance: it is the volume of plasma or blood freed of the substance per unit of time. Low values mean inefficient removal, high ones efficient removal. For orientation: half-life means the time needed for the level to fall by half in the phase considered. The low end stands for fast loss, the high end for slow loss.
